Laboratory results as given in ChEMBL document CHEMBL5331058, “Review of bioactivity and structure-activity relationship on baicalein (5,6,7-trihydroxyflavone) and wogonin (5,7-dihydroxy-8-methoxyflavone) derivatives: Structural modifications inspired from flavonoids in Scutellaria baicalensis” (Eur J Med Chem, 2022).
Converted amounts (≈) assume the structure as drawn.

Columns and labels:
Alpha glucosidase [1] = molecular target: T1, Alpha glucosidase (Homo sapiens, UniProt O43451+P10253+P14410+Q2M2H8); experiment: Inhibition of alpha glucosidase (unknown origin) spectrophotometric analysis; assay type: protein assay
[2] = Permeability of the compound across blood brain barrier at pH 7.4 incubated for 4 hrs by parallel artificial membrane permeation assay; assay type: ADME; conditions: pampa, pH 7.4, 4 h
SH-SY5Y [3] = experiment: Neuroprotective activity against H2O2-induced cell damage in human SH-SY5Y cells assessed as cell viability preincubated for 36 hrs followed by H2O2 addition and measured after 12 hrs by MTT assay; assay type: functional, cell-based
SH-SY5Y [4] = experiment: Neuroprotective activity against H2O2-induced cell damage in human SH-SY5Y cells assessed as reduction in cell viability preincubated for 36 hrs followed by H2O2 addition and measured after 12 hrs by MTT assay; assay type: functional, cell-based
Influenza A virus = experiment: Antiviral activity against influenza A virus H1N1 infected in MDCK cells assessed as reduction in virus induced cytopathic effect by CPE assay; assay type: functional, organism-based
PC-12 [5] = experiment: Cytotoxicity against H2O2-induced cell damage in rat PC12 cells assessed as reduction in cell viability at 50 uM incubated for 24 hrs by MTT assay relative to control; assay type: functional
[6] = Antioxidant activity assessed as DPPH radical scavenging activity; assay type: functional
[7] = Aqueous solubility of compound by UV spectroscopy method; assay type: physicochemical; conditions: water
PC-12 [8] = experiment: Antioxidant activity in H2O2-induced cell damage in rat PC12 cells at 50 uM; assay type: functional
Acetylcholinesterase [9] = molecular target: T2, Acetylcholinesterase (Homo sapiens, UniProt P22303); experiment: Inhibition of human AChE by Ellman's spectrophotometric method
HGC-27 = experiment: Antiproliferative activity against human HGC-27 cells assessed as reduction in cell viability incubated for 48 hrs by MTT assay; assay type: functional, cell-based; conditions: HGC-27, 48 h
MGC-803 = experiment: Antiproliferative activity against human MGC-803 cells assessed as reduction in cell viability incubated for 48 hrs by MTT assay; assay type: functional, cell-based; conditions: MGC-803, 48 h
Acetylcholinesterase [10] = molecular target: T2, Acetylcholinesterase; experiment: Inhibition of AChE (unknown origin)
[11] = molecular target: Amyloid-beta precursor protein (Homo sapiens) (UniProt P05067); experiment: Inhibition of self-induced amyloid beta (unknown origin) aggregation relative to control; conditions: concentration not given here
[12] = molecular target: Amyloid-beta precursor protein (Homo sapiens) (UniProt P05067); experiment: Inhibition of Cu2+ induced amyloid beta (unknown origin) aggregation relative to control; conditions: concentration not given here
[13] = molecular target: Amyloid-beta precursor protein (Homo sapiens) (UniProt P05067); experiment: Disaggregation of self-induced amyloid beta (unknown origin) fibrils relative to control
[14] = molecular target: Amyloid-beta precursor protein (Homo sapiens) (UniProt P05067); experiment: Disaggregation of Cu2+ induced amyloid beta (unknown origin) fibrils relative to control
Acetylcholinesterase [15] = molecular target: Acetylcholinesterase (Electrophorus electricus, UniProt O42275); experiment: Inhibition of electric eel AChE
Acetylcholinesterase [16] = molecular target: T2, Acetylcholinesterase; experiment: Inhibition of human AChE
Acetylcholinesterase [17] = molecular target: T3, Acetylcholinesterase (Rattus norvegicus, UniProt P37136); experiment: Inhibition of rat cortex homogenate AChE preincubated for 5 mins followed by compound addition and measured after 15 mins by Ellman's method
T3 sequence (P37136 whole entry): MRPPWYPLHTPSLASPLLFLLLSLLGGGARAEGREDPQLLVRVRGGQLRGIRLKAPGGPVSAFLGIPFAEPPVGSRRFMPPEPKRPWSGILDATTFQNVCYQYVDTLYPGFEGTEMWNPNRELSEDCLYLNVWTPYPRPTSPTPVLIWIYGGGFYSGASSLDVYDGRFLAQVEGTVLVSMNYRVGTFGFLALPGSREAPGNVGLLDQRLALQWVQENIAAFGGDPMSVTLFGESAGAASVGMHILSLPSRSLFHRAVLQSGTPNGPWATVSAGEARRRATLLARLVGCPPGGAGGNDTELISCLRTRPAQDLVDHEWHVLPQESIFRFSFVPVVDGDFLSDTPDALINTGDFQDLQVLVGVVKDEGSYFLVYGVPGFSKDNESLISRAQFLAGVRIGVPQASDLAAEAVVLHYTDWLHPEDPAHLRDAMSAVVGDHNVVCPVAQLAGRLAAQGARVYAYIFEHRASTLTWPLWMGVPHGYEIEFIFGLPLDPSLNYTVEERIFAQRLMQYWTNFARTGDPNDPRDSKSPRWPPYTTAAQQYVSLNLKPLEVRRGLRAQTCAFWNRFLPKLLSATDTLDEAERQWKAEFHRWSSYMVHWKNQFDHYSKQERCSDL

Butyrylcholinesterase = Butyrylcholinesterase (Rattus norvegicus, UniProt Q9JKC1); experiment: Inhibition of rat serum homogenate BuChE preincubated for 5 mins followed by compound addition and measured after 15 mins by Ellman's method; assay type: cell-free
HepG2 = experiment: Antitumor activity against human HepG2 cells assessed as reduction in cell viability at 25 uM by colorimetric MTT assay relative to control; assay type: functional
DU-145 = experiment: Anticancer activity against human DU-145 cells assessed as inhibition of cell growth at 100 uM by colorimetric MTT assay relative to control; assay type: functional; parameters: scale not given: the % may be the effect or the level left
Alpha glucosidase [18] = molecular target: T1, Alpha glucosidase; experiment: Inhibition of alpha glucosidase (unknown origin); assay type: protein assay
[19] = molecular target: Thymic stromal lymphopoietin (Homo sapiens) (UniProt Q969D9); experiment: Inhibition of N-terminal FLAG tagged/C-terminal 6 His tagged human TSLP at 1 uM preincubated for 2 hrs followed by compound addition and measured after 18 hrs by ELISA method relative to control; conditions: time 20.0 hrs
Candida albicans = experiment: Antifungal activity against Candida albicans assessed as reduction in fungal growth incubated for 16 hrs by microdilution method; assay type: functional
Staphylococcus aureus = experiment: Antibacterial activity against Staphylococcus aureus assessed as bacterial growth inhibition incubated for 16 hrs; assay type: functional
Escherichia coli = experiment: Antibacterial activity against Escherichia coli assessed as bacterial growth inhibition; assay type: functional

Amyloid-beta precursor protein (Homo sapiens), sequence (P05067 whole entry): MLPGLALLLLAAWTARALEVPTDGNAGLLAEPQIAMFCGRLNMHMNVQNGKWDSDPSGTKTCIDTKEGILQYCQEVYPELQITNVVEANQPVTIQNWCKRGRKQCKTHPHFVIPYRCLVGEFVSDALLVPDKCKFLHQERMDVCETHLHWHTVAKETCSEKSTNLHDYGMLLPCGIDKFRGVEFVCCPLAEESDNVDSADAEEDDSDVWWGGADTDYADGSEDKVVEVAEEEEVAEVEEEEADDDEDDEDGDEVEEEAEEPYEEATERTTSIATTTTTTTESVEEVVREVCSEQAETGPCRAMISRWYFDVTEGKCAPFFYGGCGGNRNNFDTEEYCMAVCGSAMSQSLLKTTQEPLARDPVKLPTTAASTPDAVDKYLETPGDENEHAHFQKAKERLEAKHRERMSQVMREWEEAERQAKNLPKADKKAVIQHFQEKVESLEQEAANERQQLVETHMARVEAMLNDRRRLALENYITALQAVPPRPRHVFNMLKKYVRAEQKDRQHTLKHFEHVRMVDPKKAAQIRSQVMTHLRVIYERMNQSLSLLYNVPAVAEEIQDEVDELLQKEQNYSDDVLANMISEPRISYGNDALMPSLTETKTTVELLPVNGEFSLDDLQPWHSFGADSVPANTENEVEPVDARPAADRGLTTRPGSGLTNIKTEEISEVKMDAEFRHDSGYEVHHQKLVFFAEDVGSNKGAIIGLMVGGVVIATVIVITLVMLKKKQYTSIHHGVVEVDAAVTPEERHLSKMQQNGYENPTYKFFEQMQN
T2 sequence (P22303 whole entry): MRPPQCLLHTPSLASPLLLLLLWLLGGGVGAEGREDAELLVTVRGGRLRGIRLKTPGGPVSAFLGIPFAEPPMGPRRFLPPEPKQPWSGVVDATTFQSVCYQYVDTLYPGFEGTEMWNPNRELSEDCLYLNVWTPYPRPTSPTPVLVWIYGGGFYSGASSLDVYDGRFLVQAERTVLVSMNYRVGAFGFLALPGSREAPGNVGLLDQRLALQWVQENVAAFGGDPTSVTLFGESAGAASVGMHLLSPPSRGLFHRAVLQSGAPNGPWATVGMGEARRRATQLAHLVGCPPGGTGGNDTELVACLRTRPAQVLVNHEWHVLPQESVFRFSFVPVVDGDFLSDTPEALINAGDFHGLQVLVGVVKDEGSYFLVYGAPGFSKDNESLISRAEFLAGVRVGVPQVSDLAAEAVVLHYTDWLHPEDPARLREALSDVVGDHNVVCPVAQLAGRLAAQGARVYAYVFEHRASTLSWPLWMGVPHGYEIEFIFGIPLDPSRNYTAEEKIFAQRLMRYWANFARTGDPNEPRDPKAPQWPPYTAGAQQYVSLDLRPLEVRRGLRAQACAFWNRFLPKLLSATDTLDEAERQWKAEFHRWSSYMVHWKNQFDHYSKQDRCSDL
Acetylcholinesterase (Electrophorus electricus, UniProt O42275), sequence (O42275 whole entry): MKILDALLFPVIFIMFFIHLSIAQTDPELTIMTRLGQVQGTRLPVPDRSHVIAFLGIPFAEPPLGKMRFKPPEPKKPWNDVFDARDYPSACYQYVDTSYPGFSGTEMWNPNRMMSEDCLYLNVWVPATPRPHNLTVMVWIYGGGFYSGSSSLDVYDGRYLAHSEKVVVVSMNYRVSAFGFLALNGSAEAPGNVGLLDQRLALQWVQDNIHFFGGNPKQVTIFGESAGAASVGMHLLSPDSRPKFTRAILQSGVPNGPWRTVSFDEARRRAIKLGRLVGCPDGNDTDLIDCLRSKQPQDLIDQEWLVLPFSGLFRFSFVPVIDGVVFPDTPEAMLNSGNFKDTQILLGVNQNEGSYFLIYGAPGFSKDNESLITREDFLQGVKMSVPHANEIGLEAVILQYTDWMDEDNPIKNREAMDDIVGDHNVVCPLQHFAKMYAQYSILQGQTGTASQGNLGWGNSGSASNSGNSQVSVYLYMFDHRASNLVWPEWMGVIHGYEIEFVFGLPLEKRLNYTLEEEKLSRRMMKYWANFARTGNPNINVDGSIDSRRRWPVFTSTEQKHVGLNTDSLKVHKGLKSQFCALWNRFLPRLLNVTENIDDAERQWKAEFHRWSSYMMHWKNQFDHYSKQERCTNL
Butyrylcholinesterase, sequence (Q9JKC1 whole entry): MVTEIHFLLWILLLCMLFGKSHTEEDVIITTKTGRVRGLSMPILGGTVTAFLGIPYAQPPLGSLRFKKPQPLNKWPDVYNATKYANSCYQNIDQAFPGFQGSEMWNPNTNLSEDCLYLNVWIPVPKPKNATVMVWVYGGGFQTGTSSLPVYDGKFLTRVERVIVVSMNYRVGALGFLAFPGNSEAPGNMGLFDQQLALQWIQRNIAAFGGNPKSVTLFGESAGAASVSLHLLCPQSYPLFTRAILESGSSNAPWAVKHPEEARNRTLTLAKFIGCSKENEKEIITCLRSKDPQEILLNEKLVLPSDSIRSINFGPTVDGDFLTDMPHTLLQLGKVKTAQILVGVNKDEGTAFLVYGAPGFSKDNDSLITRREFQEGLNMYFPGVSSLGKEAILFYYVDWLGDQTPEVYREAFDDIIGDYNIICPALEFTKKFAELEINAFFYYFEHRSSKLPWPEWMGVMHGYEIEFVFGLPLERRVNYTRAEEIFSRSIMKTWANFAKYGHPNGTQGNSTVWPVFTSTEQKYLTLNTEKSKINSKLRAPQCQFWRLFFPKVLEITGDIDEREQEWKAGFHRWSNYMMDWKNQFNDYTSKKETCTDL
Thymic stromal lymphopoietin (Homo sapiens), sequence (Q969D9 whole entry): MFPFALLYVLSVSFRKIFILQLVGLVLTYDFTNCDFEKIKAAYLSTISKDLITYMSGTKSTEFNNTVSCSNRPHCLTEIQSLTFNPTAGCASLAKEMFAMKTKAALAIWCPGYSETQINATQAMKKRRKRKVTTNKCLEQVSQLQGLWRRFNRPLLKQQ

`CCN(CCCCOc1ccc(-c2cc(=O)c3c(O)c(OC)c(OC)cc3o2)cc1)Cc1ccccc1OC` gave an IC50 (Alpha glucosidase [1]) of 25.78 µM.
In the case of `CN1C(=O)[C@@H](Cc2ccc(NC(=O)[C@H]3O[C@@H](Oc4cc5oc(-c6ccccc6)cc(=O)c5c(O)c4O)[C@H](O)[C@@H](O)[C@@H]3O)cc2)NC(=O)[C@H]1Cc1ccc2ccccc2c1`, the BBB [2] is reported as 7.22%.
`O=C(NC(Cc1ccccc1)C(=O)Oc1c(O)cc2oc(-c3ccccc3)cc(=O)c2c1O)OCc1ccccc1` (stereo not given) showed an EC50 (SH-SY5Y [3]) of 4.31 µM and an EC50 (SH-SY5Y [4]) of 24.8 µM.
For `COc1c(O)cc2oc(-c3cccc(Br)c3)cc(=O)c2c1O`, the EC50 (Influenza A virus) was 4.5 µM.
`COc1c(O)cc2oc(-c3ccc(O)cc3)cc(=O)c2c1O` [HISPIDULIN] showed an inhibition at 50 µM (PC-12 [5]) of 94.2%, an IC50 [6] of 19.3 µM and a solubility [7] of 15.3 µg/mL (≈ 51.1 µM).
Work on `CC(C)N(CCOc1c(O)cc2oc(-c3ccc(O)cc3)cc(=O)c2c1O)C(C)C` yielded an Activity (PC-12 [8]) of 72.12%.
Compound `COc1cc2oc(-c3ccc(NCCNc4c5c(nc6cc(Cl)ccc46)CCCC5)cc3)cc(=O)c2c(OC)c1OC` has an IC50 (Acetylcholinesterase [9]) of 4.73 µM.
For `COC(=O)c1cc(Br)ccc1OCCCOc1ccc(-c2cc(=O)c3c(OC)c(OC)c(OC)cc3o2)cc1`, the IC50 (HGC-27) was 10.3 µM and the IC50 (MGC-803) was 17.2 µM.
In the case of `CCN(C)C(=O)Oc1ccc(-c2cc(=O)c3c(O)c(O)c(OC(=O)N[C@@H](Cc4ccccc4)C(=O)OC(C)(C)C)cc3o2)cc1`, the IC50 (Acetylcholinesterase [10]) is reported as 4.73 µM, the inhibition [11] is reported as 89.2% and the inhibition [12] is reported as 86.2%. For the same compound, the Activity [13] was 84.2%, the Activity [14] was 78.7% and the IC50 (Acetylcholinesterase [15]) was 6.01 µM. The IC50 (Acetylcholinesterase [16]) was 7.91 µM.
Work on `CCN(CC)C(=O)Oc1ccc(-c2cc(=O)c3c(O)c(OC)c(OC)cc3o2)cc1` yielded an IC50 (Acetylcholinesterase [17]) of 1.2 µM and an IC50 (Butyrylcholinesterase) of 22.1 µM.
In the case of `COc1cc2oc(-c3ccc(N)cc3)cc(=O)c2c(OC)c1OC`, the Activity (HepG2) is reported as less than 2% and the Activity (DU-145) is reported as 60%.
`CC(c1cc(O)c2c(=O)cc(-c3ccccc3)oc2c1)c1ccc(O)cc1O` (stereo not given) gave an IC50 (Alpha glucosidase [18]) of 44.11 µM.
`O=c1cc(-c2cccc(-c3ccc(O)cc3)c2)oc2cc(O)cc(O)c12` gave an inhibition [19] of 77.5%.
In the case of `COc1c(C(C)c2ccc(O)cc2O)cc2oc(-c3ccccc3)cc(=O)c2c1O` (stereo not given), the IC50 (Alpha glucosidase [18]) is reported as 39.21 µM.
With `COc1c(O)cc2oc(-c3ccccc3Br)cc(=O)c2c1O` the EC50 (Influenza A virus) was 4 µM.
With `CC(C)=CCCC(C)CCOC(=O)[C@H]1O[C@@H](Oc2cc3oc(-c4ccccc4)cc(=O)c3c(O)c2O)[C@H](O)[C@@H](O)[C@@H]1O` (stereo not given in full) the MIC (Candida albicans) was 400 µM (≈ 234 µg/mL), the MIC (Staphylococcus aureus) was 800 µM (≈ 468 µg/mL) and the MIC (Escherichia coli) was 3200 µM (≈ 1870 µg/mL).
